Laboratory results: patent US20110152267A1, “Compositions and Methods for Treating Hyperproliferative Disorders” (Texas Tech University System, priority 2009, published 2011)

Key:
Assay type in all cases: cell-based, human
[1] = system: CHLA-90 pediatric neuroblastoma cell line; assay: DIMSCAN cytotoxicity, fenretinide + L-threo-sphinganines 3:1 (Example B21)
Experimental: (§1) Cytotoxicity Assay—Once again, cytotoxicity is determined using the DIMSCAN assay system (R. Proffitt et al., Cytometry 24, 204-213 (1996); T. Frgala et al., Mol Cancer Ther. 6:886-97, 2007). The system employs digital imaging microscopy to quantify viable cells, which selectively accumulate fluorescein diacetate to become brightly fluorescent. The system is capable of measuring cytotoxicity over a 4-5 log dynamic range by quenching the residual fluorescence of dead and dying cells with eosin Y and quantifying the total fluorescence of viable cells using digital thresholding. Measured fluorescence is directly proportionate to the number of viable cells. A comparison of the total fluorescence of a drug-treated cell population to the fluorescence of a similar number of untreated cells yields a survival fraction. In brief, 2000 to 10,000 cells/well (depending on size and growth rates) are replicate plated into 60 wells of a 96-well tissue culture plate in 0.1 mL of whole medium and allowed to attach overnight. Drug(s) are then added in 0.05 mL of whole medium to the final concentrations indicated. Drugs (fenretinide, and various chain length L-threo-sphinganines) were tested both as single agents and in a 3:1 ratio of fenretinide:sphinganine. C18-L-threo-sphinganine, or “safingol,” was also tested and results shown for reference. There are 12 wells treated per drug concentration. Twelve wells receive drug vehicle-only to the appropriate final concentration and serve as controls for the plate. Cells are incubated for 96 hours at 37° C. in ambient air with 5% CO2. Fluorescein diacetate is then added to each well in 0.05 mL media to a final concentration of 8 microgram/mL. Cells are incubated for a further 15 minutes at 37° C. and 0.03 mL of 0.5% eosin Y is added to each well. Total fluorescence of viable cells is then measured by digital imaging microscopy. Results were graphed as the ratio of the fluoresecence of drug-treated wells to non-drug treated control wells (i.e., Survival Fraction). All tests were performed at least twice. Representative results are shown.
(§2) The Combination Index (CI) is a term to describe mathematical modeling of the pharmacologic effects on cytotoxicity (cell death) of two drugs in combination based. Cytotoxic “synergy” is defined as a cell death affect which is greater than would be expected from a simple product of the single agent cytotoxicities alone (i.e. an “additive” effect). By Chou-Talalay analysis, a CI<0.9 on a Fraction Affected (“Fa”, i.e. fraction of cells killed) indicates synergy, with smaller numbers indicating greater synergy; a CI of 0.9-1.1 signifies an additive or near-additive effect; and a CI>1.1 means the drug combination is antagonistic.
Fenretinide and L-threo-sphinganines tested in human pediatric neuroblastoma (a nerve-related, solid tumor cancer) cell line, CHLA-90.

[2] = system: MDA-MB-231 breast adenocarcinoma cell line; assay: DIMSCAN cytotoxicity, fenretinide + L-threo-sphinganines 3:1 (Example B14); settings: MDA-MB-231, 20% O2, 96 h
How it was run: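 Cells plated at 2000–10,000/well, attached overnight, then exposed 96 h at 37 °C to fenretinide and L-threo-sphinganines alone or at 3:1 fenretinide:sphinganine, 12 wells per concentration. Viable cells quantified by fluorescein diacetate (8 microgram/mL) with eosin Y quench via digital imaging; survival fraction versus vehicle wells, synergy by Chou-Talalay combination index.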

[3] = system: OE-33 esophageal adenocarcinoma cell line; assay: DIMSCAN cytotoxicity, fenretinide + L-threo-sphinganines 3:1 (Example B19)
Experimental: as §1, §2
(§3) Fenretinide and L-threo-sphinganines tested in human esophageal adenocarcinoma (esophagus cancer) cell lines, OE-19 and OE-33.

[4] = system: OE-19 esophageal adenocarcinoma cell line; assay: as above
Experimental: as §1, §2, §3

[5] = system: MCF-7/ADR (OVCAR-8/ADR) ovarian cancer cell line; assay: DIMSCAN cytotoxicity dose-response with fenretinide (Examples A, FIG. 16); settings: 2% oxygen, at one or more doses, +96 hrs
Experimental: Cytotoxicity Assay: Cytotoxicity in cell lines was determined using a fluorescence-based assay employing digital imaging microscopy (DIMSCAN)(after Fragala, et al, Mol Cancer Ther, 6:886-897, 2007). DIMSCAN quantitates viable cells which selectively accumulate fluorescein diacetate and is capable of measuring cytotoxicity over a 4-5 log dynamic range by quantifying total fluorescence per well (which is proportional to viable, clonogenic cells) after eliminating background fluorescence using digital thresholding and eosin Y quenching. Briefly, cell lines were seeded into 96-well plates in 100 µL of complete culture medium (10-20% serum) per well. Cells were incubated overnight in 2%, 5% or 20% oxygen (room air) prior to addition of drugs in […] volumes of complete medium to various final drug concentrations in replicates of 12 wells per concentration. In assays employing D-threo-PPMP, PPMP was employed at a fixed, minimally-toxic, final concentration of 10 μM in each well. Control wells received ethanol (final concentration=0.12%-0.20%) in complete medium equivalent to the maximum final ethanol concentration of drug-treated wells. […] Total fluorescence of each well was then measured using digital imaging microscopy. […]

[6] = 4-HPR 3 μM + L-threo-sphinganine 1 μM
[7] = 4-HPR 6 μM + L-threo-sphinganine 2 μM
[8] = 4-HPR 9 μM + L-threo-sphinganine 3 μM
[9] = 4-HPR 12 μM + L-threo-sphinganine 4 μM
[10] = 4-HPR 1.5 μM + L-threo-sphinganine 0.5 μM

## CCCCCCCCCCCCCCCCC[C@H](O)[C@@H](N)CO [C20, (2S,3S)-2-amino-1,3-icosanediol]
[1]; [6]
  CI: 0.5
  Fa: 0.996
[1]; [7]
  CI: 0.7
  Fa: 0.999
[1]; [8]
  CI: 1.1
  Fa: 0.999
[1]; [9]
  CI: 1.5
  Fa: 0.9999
[2]; [10]
  CI (Combination Index): 2.0
  Fa (fraction affected): 0.011
[2]; [6]
  CI (Combination Index): 1.1
  Fa (fraction affected): 0.190
[2]; [7]
  CI (Combination Index): 1.3
  Fa (fraction affected): 0.583
[2]; [8]
  CI (Combination Index): 1.8
  Fa (fraction affected): 0.664
[3]; [10]
  CI: 1.9
  Fa: 0.255
[3]; [6]
  CI: 1.9
  Fa: 0.445
[3]; [7]
  CI: 0.8
  Fa: 0.883
[3]; [8]
  CI: 0.2
  Fa: 0.993
[4]; [10]
  CI: 3.2
  Fa: 0.352
[4]; [6]
  CI: 6.6
  Fa: 0.438
[4]; [7]
  CI: >>1
  Fa: 0.708
[4]; [8]
  CI: >>1
  Fa: 0.771
[5]
  C.I. (Combination Index) with fenretinide: < 1
